Assay results taken from patent EP0229966A1, “Process for the control of weeds in useful plant cultures and means for performing the process” (SIEGFRIED AKTIENGESELLSCHAFT, priority 1985, dated 1987).

What was measured:
Maus = conditions: cited from earlier work
[1] = test system: 7 repräsentative Unkraut- arten; assay: Greenhouse pot test, spray directly after sowing, EWRC rating, weeds (Tabelle I); assay type: in vivo; conditions: EWRC scale, 1 = völlige Abtötung, 9 = völlige Wirkungslosigkeit
Excerpt: (§1) Der Tabelle 1 liegen orientierende Versuche zugrunde, welche im klimatisierten Gewächshaus durchgeführt wurden, wobei 7 repräsentative Unkraut- arten und als Beispiel einer Kulturpflanze Raps benützt wurden. Unmittelbar nach dem Beschicken der Kunststofftöpfe mit dem Saatgut wurde (abge-
(§2) sehen von der unbehandelt bleibenden Kontrollserie) je eine Serie behandelt durch Aufsprühen einer wässrigen Suspension bzw. Emulsion, welche als Herbizid entweder nur den Aktivstoff I oder II in unterschiedlicher Menge oder beide Stoffe kombiniert in unterschiedlichen Mengen und Mengenverhältnissen enthielt. Die eingesetzten Aktivstoff-Mengen wurden umgerechnet auf die Aufwändmengen in Gramm Wirkstoff pro Hektar. Die Effekte wurden innert vier Wochen mehrmals begutachtet und protokolliert.
(§3) Die in der Tabelle I enthaltenen Wirkungsangaben wurden nach der Bonitierungs-Skala des European Weed Research Council (EWRC) bestimmt, wobei hier sowohl für Unkräuter wie auch für Kulturpflanze der Wert 1 der völligen Abtötung und der Wert 9 der völligen Wirkungslosigkeit zugeordnet wurde: […]

[2] = test system: Chenopodium album ("CHEAL"); assay: Field trial, Swiss Mittelland, percent weed control from plant counts (Tabelle II); assay type: in vivo, Chenopodium album L.; conditions: four weeks after treatment
Excerpt: Die Tabelle II zeigt Resultate von Versuchen, die im Freien, nämlich im schweizerischen Mittelland auf mittelschwerem sandigem Lehmboden durchgeführt wurden. Die hier wiedergegebenen Werte sind Prozent-Zahlen, die errechnet wurden aufgrund der Formel [formula] wobei AK die Individuenzahl der jeweiligen Unkraut-Art pro Flächeneinheit der unbehandelten Kontrollparzelle und AB die entsprechende Individuenzahl pro Flächeneinheit der jeweiligen behandelten Partelle bedeutet. Die Ermittlung der Wirkung erfolgte vier Wochen nach Behandlung.

Raps = assay: Greenhouse pot test, spray directly after sowing, crop tolerance (Tabelle I); assay type: in vivo
Excerpt: as §1, §2, §3

Ratte = conditions: cited from earlier work

Row | SMILES | LD 50 p.o. (Maus) | Durchschnittswert (EWRC) gegenüber den 7 Unkraut-Arten ([1]; 4000 g/ha Aktivstoff I alone) | Wirkung auf Chenopodium album ([2]; 4000 g/ha Aktivstoff I alone) | Schädigung Raps (Raps; 2000 g/ha Aktivstoff I alone) | Durchschnittswert (EWRC) gegenüber den 7 Unkraut-Arten ([1]; 1000 g/ha Aktivstoff II alone) | Wirkung auf Chenopodium album ([2]; 1000 g/ha Aktivstoff II alone) | Schädigung Raps (Raps; 500 g/ha Aktivstoff II alone) | LD 50 p.o. (Ratte)
1 | CCN(CC)C(=O)SCc1ccccc1Cl [Aktivstoff I, S-(2-Chlorbenzyl)-N,N-diethyl-thiocarbamat] | ~1850 mg/kg | 3,5 | 87% | deutlich geschädigt | – | – | – | –
2 | Cc1cccc(C)c1N(Cn1cccn1)C(=O)CCl [Aktivstoff II, N-(2,6-Dimethylphenyl)-N-(1-pyrazolylmethyl)-chloracetamid] | – | – | – | – | 5,5 | 91% | deutlich geschädigt | 2150 mg/kg
